Source: article PMC11484942, “Rumicidins are a family of mammalian host-defense peptides plugging the 70S ribosome exit tunnel” (Nature Communications, 2024)
Read-outs that look alike come from different tables or passages of the source. Bridge positions count the residues as written; N and C are the ends. Square brackets hold non-standard residues; d marks the D form. Ends that are not written are not given here. Peptide text beside a SMILES is read from it. * marks the point of attachment. X1 = CC[C@H](C)CCCCC(=O)*; Dab = NCC[C@H](N)C(=O)O

What was measured:
S. aureus ATCC 29213 = type: cell-based, Staphylococcus aureus; settings: ATCC 29213, 24 h
Protocol: (§1) The reduction of resazurin to resorufin was recorded.

[1] = system: human red blood cells (hRBC); test: Hemolysis (hemoglobin release assay); type: cell-based; settings: mean
Protocol: (§2) Hemolytic activity of the peptides was tested against the fresh suspension of human red blood cells (hRBC) using the hemoglobin release assay as described previously. Two experiments were performed with the hRBC from blood samples collected from healthy donors by certified medical personnel upon informed written consent. All procedures were approved by the Ethics Committee of the Institute of Experimental Medicine (protocol 1/20 of 2/27/2020) and comply with the ethical principles of the Declaration of Helsinki. The quantitative data were represented as average means with standard deviations. The colorimetric 3-(4,5-dimethylthiazol-2-yl)-2,5-diphenyltetrazolium bromide (MTT) dye reduction assay was used to determine cytotoxicity of the peptides against human keratinocyte cell line (HaCaT) and transformed human embryonic kidney cells (HEK293T). Both cell lines were purchased from American Type Culture Collection (ATCC). 10^4 cells per well in Dulbecco’s modified Eagle’s medium (DMEM/F12) supplemented with 10% fetal bovine serum (FBS, Invitrogen) were placed into 96-well plates and then cultured in the CO2-incubator (5% CO2, 37 °C). After the media were removed, the peptides were dissolved in 100 µL of the same medium and added to cell cultures at different final concentrations. 20 h later, 20 μL of MTT (5 mg/mL, Sigma) was added to each well, and the plates were incubated for 4 h at 37 °C. Then, the media were discarded and 100 µL DMSO-isopropanol mixture at a ratio of 1:1 (v/v) was added to each well to dissolve the crystallized formazan. The absorbance at 570 nm was measured by a microplate reader AF2200 (Eppendorf). An optical density in the wells containing cells cultured without the peptides was assumed to represent 100% cell viability. Two independent experiments were performed for each peptide.

HaCaT (keratinocytes) = test: MTT cytotoxicity; type: cell-based, human
Protocol: as §2

[2] = system: HEK293T (transformed embryonic kidney cells); test: MTT cytotoxicity; type: cell-based, human; settings: mean
Protocol: as §2

E. coli = type: cell-based, Escherichia coli
Source text: of bacterial cells washed with sodium phosphate buffer, whereas the addition of 0.9% NaCl and/or divalent cations minimized or even abolished the activity (Supplementary Fig. 14). The same was true for Bac7[1-22] in most cases (Supplementary Fig. 14), except for the maximum […]
“NaPB + 0.9% NaCl”), at which significant outer membrane damage was observed. Thus, in the context of the host immune system operating in a complex environment containing NaCl and divalent cations, the most likely scenario is that rumicidin's ability to disrupt the integrity of the outer membrane is suppressed. Antibacterial activity of rumicidin-1 is inhibited in the presence […]
mixture, respectively), and the electrical double layer around the cell seems to be a key barrier on the way into the cell of highly charged and relatively hydrophilic PrAMP. Perhaps, translocation of rumicidin-1 into the periplasmic space depends on electrostatic interaction with the outer membrane followed by porin-mediated uptake (the gene knockout of ompF resulted in a 4-fold increase in MIC, Fig. 5a). […]
Fig. 4), (iv) experiments on inhibition of peptide bond formation Supplementary Fig. 5, and (v) structural studies of the rumicidin complex with the ribosome by Cryo-EM (Fig.4).
Point 2. Authors claim that the effect of these peptides on membrane integrity may be due to the presence of aromatic Trp and Phe residues in their structure. However, effect of the rumicidin-1 variant W23A,F24A is not shown.
To fill this gap, we performed a comparative analysis of the ability of rumicidin-1 and its analogue [W23A,F24A] to increase the permeability of E. coli membranes under different environmental conditions. In all cases in the […]

E. cloacae XDR CI 4172 = type: cell-based, Enterobacter cloacae; settings: XDR CI 4172, 24 h
Protocol: as §1

E. coli BW25113 = test: MIC broth microdilution; type: cell-based, Escherichia coli; settings: 24 h 37 °C, median of ≥3 experiments; for Minimum inhibitory concentration MHB: Mueller-Hinton broth without salt
Protocol: as §1

[3] = system: Mycobacterium smegmatis mc(2)155; type: cell-based; settings: Mycobacterium mc(2)155, 24 h
Protocol: as §1

E. coli BW25113 ΔsbmA = type: cell-based, Escherichia coli
Protocol: as §1

[4] = system: E. coli BW25113 ΔtolC pDualrep2; test: pDualrep2 double-reporter assay; type: cell-based, Escherichia coli; settings: agar plate, overnight 37 °C
Protocol: For in vivo bioactivity test, the reporter strain BW25113 ΔtolC-pDualrep2 was used as previously described. Briefly, 10 µL of solutions of tested peptides (0.2 mM of full-length rumicidin isoforms; 0.5 mM of Rum-1[1-22] and Rum-1[9-29]) were applied to an agar plate contained a lawn of the reporter strain. 5 mg/ml erythromycin (Ery, 1 µL) and 25 µg/ml levofloxacin (Lev, 1 µL) solutions were used as control samples. After being incubated overnight at 37 °C, the plate was scanned by ChemiDoc (Bio-Rad) using “Cy3-blot” settings for RFP and “Cy5-blot” for the Katushka2S protein. At least, two independent experiments were performed, and the observed effects were the same.

E. coli 1057 WT = test: microbe, parasite or virus in culture; type: cell-based, Escherichia coli; settings: MHB + 0.9% NaCl
Protocol: Minimum inhibitory concentrations (MIC) were determined by broth microdilution assay based on Clinical and Laboratory Standards Institute (CLSI) guidelines using BSA in the growth medium to minimize AMP nonspecific adsorption[49]. Bacterial test cultures were grown in the Mueller-Hinton broth (MHB, Sigma) at 37 °C to mid-log phase and then diluted with the 2× MH medium supplemented with 1.8% NaCl (or without salt) so that to reach a final cell concentration of 10^6 CFU/mL. 50 µL of the obtained bacterial suspension were added to aliquots of 50 µL of the peptide solutions serially diluted with sterilized 0.1% bovine serum albumin (BSA) in 96-well flat-bottom polystyrene microplates (Eppendorf #0030730011). […] To verify MIC values, the respiratory activity of the bacteria was determined. Briefly, 5 µL of 0.5 mg/mL resazurin (Sigma) was added to the wells after 24 h (or after 48 h for M. smegmatis) of incubation, and the plate was incubated for additional 3 h. In some cases, MICs were determined in the Lysogeny Broth (LB) or Middlebrook 7H9 medium. The reduction of resazurin to resorufin was recorded. […] The results were expressed as the median values determined based on at least three independent experiments performed in triplicate.

E. coli strains = settings: cited from earlier work
Source text: This highly cationic fragment is important for both high affinity binding of Bac7 to the ribosome and its penetration inside bacterial cells. The effect of N-terminal shortening of rumicidin-1 was not so marked: activities of the analogs 4-29 and 6-29 decreased only two-fold, while the MIC values of the analogs 9-29 and 11-29 against E. coli were ≥4- ...

70S initiation complexes = test: Peptide bond formation (fMet-[14C]Val dipeptide); type: biochemical; settings: 30 µM amicoumacin A; 2 min 37 °C; three replicates; intact complexes 77 ± 5%
Protocol: Initiation complexes and ternary complexes were prepared as described previously[21],[59]. Where necessary initiation complexes were supplemented with rumicidin-1 (1 μM) or amicoumacin A (30 μM) followed by additional incubation for 5 min at 37 °C. To analyze formation of dipeptide fMet-Val, 0.2 μM 70S initiation complexes containing fMet-tRNA^fMet in the P site were mixed with 0.375 μM ternary complexes EF-Tu⋅GTP⋅[^14C]Val-tRNA^Val (444 dpm/pmol) and incubated for 2 min at 37 °C. Then samples were quenched with 1/10 volume of 5 M KOH and hydrolyzed for 30 min at 37 °C. Samples were neutralized with 1/10 volume of glacial acetic acid and analyzed by reversed-phase HPLC on RP8 (Merck) with an acetonitrile gradient in 0.1% trifluoroacetic acid. Percentage of synthesized dipeptide was determined by incorporation of the radioactive label as a ratio of peptide formed to the amount of the 70S ribosomes in the reaction mixture, as described earlier. Experiments were done in three replicates.

[5] = system: E. coli 1057 R2 (rpoS^Q3stop, macB^N470D); settings: MHB + 0.9% NaCl
Protocol: Minimum inhibitory concentrations (MIC) were determined by broth microdilution assay based on Clinical and Laboratory Standards Institute (CLSI) guidelines using BSA in the growth medium to minimize AMP nonspecific adsorption. Bacterial test cultures were grown in the Mueller-Hinton broth (MHB, Sigma) at 37 °C to mid-log phase and then diluted with the 2× MH medium supplemented with 1.8% NaCl (or without salt) so that to reach a final cell concentration of 10^6 CFU/mL. 50 µL of the obtained bacterial suspension were added to aliquots of 50 µL of the peptide solutions serially diluted with sterilized 0.1% bovine serum albumin (BSA) in 96-well flat-bottom polystyrene microplates (Eppendorf #0030730011). […] To verify MIC values, the respiratory activity of the bacteria was determined. Briefly, 5 µL of 0.5 mg/mL resazurin (Sigma) was added to the wells after 24 h (or after 48 h for M. smegmatis) of incubation, and the plate was incubated for additional 3 h. In some cases, MICs were determined in the Lysogeny Broth (LB) or Middlebrook 7H9 medium. The reduction of resazurin to resorufin was recorded. […] The results were expressed as the median values determined based on at least three independent experiments performed in triplicate.
(§3) Resistance induction experiments were performed using the previously described method. This approach allows for monitoring MIC values after each transfer. Briefly, on the first day, the overnight culture of the wild-type bacteria was diluted with the 2× MHB supplemented with 1.8% NaCl (or without salt) to reach a final cell concentration of 10^6 CFU/mL. 50 µL of the obtained bacterial suspension were added to aliquots of 50 µL of the peptide solutions serially diluted with the sterilized 0.1% BSA in 96-well flat-bottom polystyrene microplates. After incubation for 20 ± 2 h at 37 °C and 950 rpm, MICs were determined as described above. For each subsequent daily transfer, 2–4 μL of the inoculum taken from the first well containing a sub-inhibitory drug concentration was diluted with 2 mL of the fresh 2× MHB supplemented with 1.8% NaCl (or without salt). […] Multiple repeated passages in the presence of antimicrobial agents were performed for each bacterial strain during the experiment. Bacteria that grew at the highest concentrations of AMPs on the final day were passaged further 3 times on drug-free agar plates before determining the final MIC value.

E. coli 1057 = test: Serial passage resistance induction; type: cell-based, Escherichia coli; settings: serial passages, both media (MHB ±0.9%NaCl)
Protocol: as §3, with “Briefly, on the first day, the overnight culture of the wild-type bacteria was diluted with the 2× MHB supplemented with 1.8% NaCl (or without salt) to reach a final cell concentration of 10^6 CFU/mL. 50 µL of the obtained bacterial suspension were added to aliquots of 50 µL of the peptide solutions serially diluted with the sterilized 0.1% BSA in 96-well flat-bottom polystyrene microplates.” left out

## RARRPRPPKPRPPHRPRPRPRPWFPPRFP [Rumicidin-1]
S. aureus ATCC 29213
  MIC S. aureus ATCC 29213: > 32 µM
[1]; 0.25 µM
  Hemolysis: 0.134%
[1]; 0.5 µM
  Hemolysis: 0.357%
[1]; 1 µM
  Hemolysis: 0.408%
[1]; 2 µM
  Hemolysis: 0.624%
[1]; 4 µM
  Hemolysis: 0.667%
[1]; 8 µM
  Hemolysis: 0.801%
[1]; 16 µM
  Hemolysis: 0.83%
[1]; 32 µM
  Hemolysis: 0.911%
[1]; 64 µM
  Hemolysis: 0.932%
HaCaT (keratinocytes); 1 µM
  HaCaT cell viability: 104.258%
HaCaT (keratinocytes); 2 µM
  HaCaT cell viability: 105.615%
HaCaT (keratinocytes); 4 µM
  HaCaT cell viability: 107.778%
HaCaT (keratinocytes); 8 µM
  HaCaT cell viability: 104.973%
HaCaT (keratinocytes); 16 µM
  HaCaT cell viability: 107.318%
HaCaT (keratinocytes); 32 µM
  HaCaT cell viability: 107.645%
HaCaT (keratinocytes); 64 µM
  HaCaT cell viability: 99.839%
[2]; 1 µM
  HEK293T cell viability: 105.704%
[2]; 2 µM
  HEK293T cell viability: 104.142%
[2]; 4 µM
  HEK293T cell viability: 106.626%
[2]; 8 µM
  HEK293T cell viability: 103.664%
[2]; 16 µM
  HEK293T cell viability: 105.32%
[2]; 32 µM
  HEK293T cell viability: 89.704%
[2]; 64 µM
  HEK293T cell viability: 72.479%
E. coli; MH medium with NaCl
  MIC: 4 µM
E. coli; MH medium with NaCl and divalent cations (mixture)
  MIC: 16 to 32 µM
E. coli; MH medium with divalent cations
  MIC: 8 µM
E. coli; salt-free MH medium
  MIC: 1 µM
E. cloacae XDR CI 4172
  MIC E. cloacae XDR CI 4172: 2 µM
E. coli BW25113; Mueller-Hinton broth + 0.9% NaCl, listed as WT
  Minimum inhibitory concentration MHB + 0.9% NaCl: 4 to 8 µM
E. coli BW25113
  Minimum inhibitory concentration MHB: 1 µM
E. coli BW25113; listed as WT
  Minimum inhibitory concentration MHB: 2 µM
[3]
  MICs depending on the test medium: 0.125 to 0.5 µM
E. coli BW25113 ΔsbmA; MHB + 0.9% NaCl
  MIC: ≥ 64 µM
E. coli BW25113 ΔsbmA; salt-free MHB
  MIC: 1 µM

## CC[C@H]1OC(=O)[C@H](C)[C@@H](O[C@H]2C[C@@](C)(OC)[C@@H](O)[C@H](C)O2)[C@H](C)[C@@H](O[C@@H]2O[C@H](C)C[C@H](N(C)C)[C@H]2O)[C@](C)(O)C[C@@H](C)C(=O)[C@H](C)[C@@H](O)[C@]1(C)O [Erythromycin]
[4]
  reporter induction: strongly induced biosynthesis of Katushka2S, but not of RFP
E. coli 1057 WT; Escherichia coli, 1057WT, 24 h
  MIC: 1020 µM

## Bac7[5-23]: Bac7 fragment lacking four N-terminal residues (RRIR) (PRPPRLPRPRPRPLPFPRP; Bactenecin-7; UniProt P19661 135-153, looked up, fragment)
E. coli strains
  fold increase in MIC on deletion of four N-terminal residues (RRIR): ≥ 16 fold

## CC(C)C[C@H](NC(=O)[C@@H](O)[C@@H](O)[C@@H](N)CC(N)=O)[C@@H]1Cc2cccc(O)c2C(=O)O1 [amicoumacin A]
70S initiation complexes
  fMet-[14C]Val dipeptide formed: 72 ± 7%

## CC[C@H](C)CCCCC(=O)N[C@@H](CCN)C(=O)N[C@H](C(=O)N[C@@H](CCN)C(=O)N[C@H]1CCNC(=O)[C@H]([C@@H](C)O)NC(=O)[C@H](CCN)NC(=O)[C@H](CCN)NC(=O)[C@H](CC(C)C)NC(=O)[C@@H](Cc2ccccc2)NC(=O)[C@H](CCN)NC1=O)[C@@H](C)O [Polymyxin B] (X1-[Dab]T[Dab][Dab][Dab][dF]L[Dab][Dab]T; lactam 4-C (inferred); N-terminus assumed)
[5]
  MIC: 4 µM
E. coli 1057 WT
  MIC: 0.062 µM
E. coli 1057
  fold increase in MIC values under selection: 128 fold

## Bac7[5-35]: Bac7 fragment lacking four N-terminal residues (RRIR) (PRPPRLPRPRPRPLPFPRPGPRPIPRPLPFP; Bactenecin-7; UniProt P19661 135-165, looked up, fragment)
E. coli strains
  fold increase in MIC on deletion of four N-terminal residues (RRIR): ≥ 16 fold
